Experimental data reported in ChEMBL document CHEMBL3991601, “The target landscape of clinical kinase drugs” (Science, 2017).
Activity calls are given as the source filed them. Cut-off read from the data, not from the text of the source, for most assays here: actives have a measured Kd and inactives only a lower limit.

What was measured:
[1] = molecular target: T1, Pyridoxal kinase (Homo sapiens, UniProt O00764)
T1 sequence (O00764 whole entry): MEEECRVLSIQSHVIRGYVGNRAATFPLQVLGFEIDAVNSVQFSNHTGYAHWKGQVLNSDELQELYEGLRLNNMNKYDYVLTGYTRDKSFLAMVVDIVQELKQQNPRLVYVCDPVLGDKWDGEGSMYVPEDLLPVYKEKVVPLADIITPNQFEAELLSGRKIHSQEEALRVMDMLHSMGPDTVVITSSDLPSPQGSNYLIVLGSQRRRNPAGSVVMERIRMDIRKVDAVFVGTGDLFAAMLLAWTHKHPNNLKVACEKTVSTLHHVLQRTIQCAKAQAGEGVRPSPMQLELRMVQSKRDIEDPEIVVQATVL

[2] = molecular target: Macrophage-stimulating protein receptor (Homo sapiens, UniProt Q04912)
Chain of Macrophage-stimulating protein receptor (Q04912 25-304 limits assumed): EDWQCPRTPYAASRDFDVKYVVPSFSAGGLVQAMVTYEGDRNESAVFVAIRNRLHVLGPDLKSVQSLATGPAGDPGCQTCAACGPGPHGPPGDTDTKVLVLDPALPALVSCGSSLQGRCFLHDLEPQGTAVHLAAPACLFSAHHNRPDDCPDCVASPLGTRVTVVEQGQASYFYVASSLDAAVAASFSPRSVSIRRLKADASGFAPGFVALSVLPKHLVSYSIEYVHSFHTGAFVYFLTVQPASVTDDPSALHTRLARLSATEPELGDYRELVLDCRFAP
Chain of Macrophage-stimulating protein receptor (Q04912 310-1400 limits assumed): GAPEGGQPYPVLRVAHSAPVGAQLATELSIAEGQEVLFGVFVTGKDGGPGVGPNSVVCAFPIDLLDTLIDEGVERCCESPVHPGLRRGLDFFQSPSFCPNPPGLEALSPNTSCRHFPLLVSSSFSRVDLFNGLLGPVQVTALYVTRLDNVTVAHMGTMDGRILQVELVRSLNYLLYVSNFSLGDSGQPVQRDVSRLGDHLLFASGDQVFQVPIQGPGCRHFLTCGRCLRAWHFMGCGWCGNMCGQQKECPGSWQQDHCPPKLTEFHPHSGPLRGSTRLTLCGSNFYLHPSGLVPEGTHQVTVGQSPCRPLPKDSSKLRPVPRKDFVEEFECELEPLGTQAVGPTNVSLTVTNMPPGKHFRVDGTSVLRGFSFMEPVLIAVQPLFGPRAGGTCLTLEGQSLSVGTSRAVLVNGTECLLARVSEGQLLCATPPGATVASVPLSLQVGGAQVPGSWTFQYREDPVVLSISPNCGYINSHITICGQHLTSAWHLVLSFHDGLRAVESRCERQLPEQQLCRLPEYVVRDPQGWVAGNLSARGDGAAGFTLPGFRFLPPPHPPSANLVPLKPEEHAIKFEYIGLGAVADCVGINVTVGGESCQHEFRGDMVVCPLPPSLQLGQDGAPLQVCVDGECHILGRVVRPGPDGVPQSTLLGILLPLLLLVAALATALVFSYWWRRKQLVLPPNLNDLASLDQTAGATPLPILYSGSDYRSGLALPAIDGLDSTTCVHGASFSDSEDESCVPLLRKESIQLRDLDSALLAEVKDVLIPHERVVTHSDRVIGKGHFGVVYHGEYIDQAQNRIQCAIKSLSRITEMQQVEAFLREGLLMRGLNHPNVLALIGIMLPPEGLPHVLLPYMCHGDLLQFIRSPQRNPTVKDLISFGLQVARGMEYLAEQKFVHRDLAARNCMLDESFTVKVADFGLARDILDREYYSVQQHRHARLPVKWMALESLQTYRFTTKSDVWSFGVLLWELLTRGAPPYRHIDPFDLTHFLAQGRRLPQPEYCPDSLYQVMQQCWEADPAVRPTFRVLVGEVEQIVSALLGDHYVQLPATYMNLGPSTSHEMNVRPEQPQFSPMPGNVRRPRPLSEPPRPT

[3] = molecular target: Glycogen synthase kinase-3 alpha (Homo sapiens, UniProt P49840)
Chain of Glycogen synthase kinase-3 alpha (P49840 whole entry): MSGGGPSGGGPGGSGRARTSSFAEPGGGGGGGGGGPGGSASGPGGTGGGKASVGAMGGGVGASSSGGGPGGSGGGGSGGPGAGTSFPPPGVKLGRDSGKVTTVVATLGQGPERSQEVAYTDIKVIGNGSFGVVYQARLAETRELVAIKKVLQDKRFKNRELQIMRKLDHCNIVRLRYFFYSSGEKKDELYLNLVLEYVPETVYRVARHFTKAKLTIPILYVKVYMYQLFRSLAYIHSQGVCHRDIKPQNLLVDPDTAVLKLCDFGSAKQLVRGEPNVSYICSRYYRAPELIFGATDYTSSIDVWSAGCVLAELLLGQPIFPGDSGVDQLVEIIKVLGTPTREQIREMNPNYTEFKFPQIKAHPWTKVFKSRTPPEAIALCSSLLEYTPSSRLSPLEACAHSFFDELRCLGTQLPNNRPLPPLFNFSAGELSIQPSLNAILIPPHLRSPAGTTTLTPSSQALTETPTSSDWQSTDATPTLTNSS

[4] = molecular target: T2, Serine/threonine-protein kinase 3 (Homo sapiens, UniProt Q13188)
T2 sequence (Q13188 whole entry): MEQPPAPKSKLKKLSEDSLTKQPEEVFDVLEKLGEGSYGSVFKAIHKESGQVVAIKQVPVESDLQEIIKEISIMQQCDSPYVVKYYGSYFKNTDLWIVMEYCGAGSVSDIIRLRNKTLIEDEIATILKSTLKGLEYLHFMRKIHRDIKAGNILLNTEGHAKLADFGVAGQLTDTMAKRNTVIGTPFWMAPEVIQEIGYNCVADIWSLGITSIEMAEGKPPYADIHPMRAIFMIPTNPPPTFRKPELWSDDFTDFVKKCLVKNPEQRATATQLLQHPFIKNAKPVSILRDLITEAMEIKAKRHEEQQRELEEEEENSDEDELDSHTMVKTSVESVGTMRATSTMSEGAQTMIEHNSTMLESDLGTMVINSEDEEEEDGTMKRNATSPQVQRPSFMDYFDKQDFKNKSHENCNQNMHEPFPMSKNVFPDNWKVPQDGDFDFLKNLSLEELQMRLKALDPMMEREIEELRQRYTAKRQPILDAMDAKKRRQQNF

[5] = molecular target: T3, TGF-beta receptor type-1 (Homo sapiens, UniProt P36897)
T3 sequence (P36897 whole entry): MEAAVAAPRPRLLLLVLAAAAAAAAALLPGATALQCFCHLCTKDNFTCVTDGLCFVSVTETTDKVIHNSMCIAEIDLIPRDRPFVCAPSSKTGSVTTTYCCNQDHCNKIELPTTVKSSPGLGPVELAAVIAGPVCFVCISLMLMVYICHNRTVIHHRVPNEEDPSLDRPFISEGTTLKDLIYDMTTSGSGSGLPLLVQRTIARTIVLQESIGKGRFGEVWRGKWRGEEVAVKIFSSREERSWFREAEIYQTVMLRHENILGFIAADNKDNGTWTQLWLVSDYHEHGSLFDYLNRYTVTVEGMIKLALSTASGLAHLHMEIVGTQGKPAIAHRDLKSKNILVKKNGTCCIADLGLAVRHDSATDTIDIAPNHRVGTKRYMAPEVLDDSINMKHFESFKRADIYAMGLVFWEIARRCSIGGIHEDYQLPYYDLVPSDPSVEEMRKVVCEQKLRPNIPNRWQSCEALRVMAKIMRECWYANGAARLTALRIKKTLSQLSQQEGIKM

[6] = molecular target: Casein kinase I isoform gamma-1 (Homo sapiens, UniProt Q9HCP0)
Chain of Casein kinase I isoform gamma-1 (Q9HCP0 whole entry, canonical isoform): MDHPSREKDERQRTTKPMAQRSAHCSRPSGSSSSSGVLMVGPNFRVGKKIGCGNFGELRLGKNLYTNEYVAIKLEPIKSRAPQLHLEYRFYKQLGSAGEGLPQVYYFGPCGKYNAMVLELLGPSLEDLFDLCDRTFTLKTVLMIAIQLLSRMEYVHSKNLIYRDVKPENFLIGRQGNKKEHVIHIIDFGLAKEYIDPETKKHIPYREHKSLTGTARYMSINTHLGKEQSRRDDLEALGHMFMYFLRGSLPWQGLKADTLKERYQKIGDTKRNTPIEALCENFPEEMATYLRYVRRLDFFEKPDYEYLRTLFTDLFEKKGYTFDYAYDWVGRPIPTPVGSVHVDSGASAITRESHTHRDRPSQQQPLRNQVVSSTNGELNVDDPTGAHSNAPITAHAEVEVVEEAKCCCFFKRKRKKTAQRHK

[7] = molecular target: T4, General transcription and DNA repair factor IIH helicase subunit XPD (Homo sapiens, UniProt P18074); details: read-out: Kd apparent; k-562, colo 205, sk-n-be(2) and mv-4-11
T4 sequence (P18074 whole entry): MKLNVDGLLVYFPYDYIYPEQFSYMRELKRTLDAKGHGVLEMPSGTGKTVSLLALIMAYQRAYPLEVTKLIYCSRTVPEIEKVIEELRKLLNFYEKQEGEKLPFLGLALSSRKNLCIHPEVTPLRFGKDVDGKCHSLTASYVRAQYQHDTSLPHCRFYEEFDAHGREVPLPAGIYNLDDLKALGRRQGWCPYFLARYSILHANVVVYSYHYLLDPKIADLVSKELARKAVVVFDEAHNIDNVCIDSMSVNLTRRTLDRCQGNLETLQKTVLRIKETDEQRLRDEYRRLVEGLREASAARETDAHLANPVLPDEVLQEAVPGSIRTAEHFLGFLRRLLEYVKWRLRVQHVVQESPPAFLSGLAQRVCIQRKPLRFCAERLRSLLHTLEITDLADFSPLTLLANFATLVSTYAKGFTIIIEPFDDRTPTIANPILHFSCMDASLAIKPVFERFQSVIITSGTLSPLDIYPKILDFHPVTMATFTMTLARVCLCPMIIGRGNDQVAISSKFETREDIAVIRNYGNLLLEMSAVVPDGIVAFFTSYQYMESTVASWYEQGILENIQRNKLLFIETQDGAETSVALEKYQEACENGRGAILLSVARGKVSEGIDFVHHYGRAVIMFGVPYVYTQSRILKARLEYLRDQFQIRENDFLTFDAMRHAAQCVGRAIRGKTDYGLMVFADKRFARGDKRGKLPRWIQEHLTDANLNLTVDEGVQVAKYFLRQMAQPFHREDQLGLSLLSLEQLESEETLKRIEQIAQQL

[8] = molecular target: Platelet-derived growth factor receptor beta (Homo sapiens, UniProt P09619)
[9] = molecular target: T5, EKC/KEOPS complex subunit TP53RK (Homo sapiens, UniProt Q96S44)
T5 sequence (Q96S44 whole entry): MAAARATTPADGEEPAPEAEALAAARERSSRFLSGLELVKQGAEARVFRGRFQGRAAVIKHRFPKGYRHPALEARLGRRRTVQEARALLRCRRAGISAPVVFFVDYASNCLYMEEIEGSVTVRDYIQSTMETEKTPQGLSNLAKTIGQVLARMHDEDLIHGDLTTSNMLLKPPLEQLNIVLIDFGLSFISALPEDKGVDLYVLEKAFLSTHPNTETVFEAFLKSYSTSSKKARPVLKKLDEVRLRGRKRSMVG

[10] = molecular target: Serine/threonine-protein kinase MRCK beta (Homo sapiens, UniProt Q9Y5S2)
Chain of Serine/threonine-protein kinase MRCK beta (Q9Y5S2 whole entry, the tested form may be a part): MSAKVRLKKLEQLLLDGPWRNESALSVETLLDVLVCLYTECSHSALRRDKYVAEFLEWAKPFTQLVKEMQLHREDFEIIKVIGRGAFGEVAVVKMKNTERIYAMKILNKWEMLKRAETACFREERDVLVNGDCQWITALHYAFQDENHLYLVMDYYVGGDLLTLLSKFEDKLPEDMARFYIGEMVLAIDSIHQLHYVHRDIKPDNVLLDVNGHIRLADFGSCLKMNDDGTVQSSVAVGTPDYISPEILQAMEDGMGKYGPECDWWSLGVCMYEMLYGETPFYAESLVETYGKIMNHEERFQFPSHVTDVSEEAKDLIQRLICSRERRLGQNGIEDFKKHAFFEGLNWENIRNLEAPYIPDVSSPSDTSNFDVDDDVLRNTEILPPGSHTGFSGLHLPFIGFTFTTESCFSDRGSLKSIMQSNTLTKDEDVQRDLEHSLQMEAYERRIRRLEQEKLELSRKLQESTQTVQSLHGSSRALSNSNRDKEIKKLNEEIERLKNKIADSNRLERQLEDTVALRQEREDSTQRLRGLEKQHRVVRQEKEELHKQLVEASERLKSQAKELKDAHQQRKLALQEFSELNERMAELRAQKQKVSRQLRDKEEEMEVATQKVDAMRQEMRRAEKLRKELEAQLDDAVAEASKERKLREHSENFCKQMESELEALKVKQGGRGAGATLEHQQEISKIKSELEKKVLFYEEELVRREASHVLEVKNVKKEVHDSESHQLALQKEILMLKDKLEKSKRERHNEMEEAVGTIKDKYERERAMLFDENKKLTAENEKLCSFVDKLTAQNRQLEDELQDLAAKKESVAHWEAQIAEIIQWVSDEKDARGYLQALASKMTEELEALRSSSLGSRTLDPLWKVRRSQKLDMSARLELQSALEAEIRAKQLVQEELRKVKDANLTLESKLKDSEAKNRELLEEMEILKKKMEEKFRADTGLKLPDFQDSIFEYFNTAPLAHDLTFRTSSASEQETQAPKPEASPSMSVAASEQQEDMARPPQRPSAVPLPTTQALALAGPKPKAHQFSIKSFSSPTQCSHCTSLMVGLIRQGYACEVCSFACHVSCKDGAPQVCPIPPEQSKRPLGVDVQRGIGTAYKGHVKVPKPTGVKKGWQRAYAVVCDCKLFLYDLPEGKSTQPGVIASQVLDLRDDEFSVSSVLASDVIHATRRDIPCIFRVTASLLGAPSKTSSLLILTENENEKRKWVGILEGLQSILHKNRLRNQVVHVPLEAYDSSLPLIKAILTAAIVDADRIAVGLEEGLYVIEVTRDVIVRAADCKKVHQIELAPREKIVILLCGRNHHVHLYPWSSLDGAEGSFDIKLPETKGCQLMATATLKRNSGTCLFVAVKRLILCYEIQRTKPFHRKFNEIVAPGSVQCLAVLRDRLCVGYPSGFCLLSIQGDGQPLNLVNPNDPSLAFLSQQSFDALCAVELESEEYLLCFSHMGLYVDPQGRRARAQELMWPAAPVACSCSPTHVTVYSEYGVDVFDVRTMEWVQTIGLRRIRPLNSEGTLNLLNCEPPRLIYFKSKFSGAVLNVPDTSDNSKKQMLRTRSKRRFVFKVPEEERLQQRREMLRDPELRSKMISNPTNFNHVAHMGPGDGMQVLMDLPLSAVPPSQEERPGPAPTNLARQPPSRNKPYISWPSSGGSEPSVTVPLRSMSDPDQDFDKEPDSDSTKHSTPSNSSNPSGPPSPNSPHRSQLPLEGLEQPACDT

[11] = molecular target: LIM domain kinase 1 (Homo sapiens, UniProt P53667)
Chain of LIM domain kinase 1 (P53667 whole entry, the tested form may be a part): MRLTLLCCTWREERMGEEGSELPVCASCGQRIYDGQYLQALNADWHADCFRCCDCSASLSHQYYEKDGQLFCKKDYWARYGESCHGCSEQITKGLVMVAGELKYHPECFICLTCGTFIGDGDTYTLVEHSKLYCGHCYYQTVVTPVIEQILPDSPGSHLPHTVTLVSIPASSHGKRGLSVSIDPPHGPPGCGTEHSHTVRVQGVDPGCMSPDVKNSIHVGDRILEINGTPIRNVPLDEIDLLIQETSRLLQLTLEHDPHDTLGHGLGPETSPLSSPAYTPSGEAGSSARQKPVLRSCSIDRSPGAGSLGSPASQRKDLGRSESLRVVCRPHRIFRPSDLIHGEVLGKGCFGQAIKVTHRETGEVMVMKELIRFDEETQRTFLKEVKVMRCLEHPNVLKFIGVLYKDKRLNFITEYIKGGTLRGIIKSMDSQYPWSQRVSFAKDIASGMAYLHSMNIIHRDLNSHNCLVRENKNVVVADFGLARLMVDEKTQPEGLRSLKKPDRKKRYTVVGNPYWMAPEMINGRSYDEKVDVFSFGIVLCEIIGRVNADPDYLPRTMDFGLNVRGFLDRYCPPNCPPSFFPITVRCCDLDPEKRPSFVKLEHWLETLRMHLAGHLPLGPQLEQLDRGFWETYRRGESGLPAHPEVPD
Note: in the data inactive means no Kd found up to 30 µM.

Kd [1] | Kd [2] | Kd [3] | Kd [4] | Kd [5] | Kd [6] | Kd [7] | Kd [8] | Kd [9] | Kd [10] | Kd [11] | Compound
> 30 µM (inactive) | > 30 µM (inactive) | > 30 µM (inactive) | > 30 µM (inactive) | > 30 µM (inactive) | 1.75 µM | > 30 µM (inactive) | > 30 µM (inactive) | > 30 µM (inactive) | > 30 µM (inactive) | > 30 µM (inactive) | CCS(=O)(=O)N1CC(CC#N)(n2cc(-c3ncnc4[nH]ccc34)cn2)C1 [BARICITINIB]
> 30 µM (inactive) | > 30 µM (inactive) | > 30 µM (inactive) | > 30 µM (inactive) | > 30 µM (inactive) | > 30 µM (inactive) | > 30 µM (inactive) | 0.288 µM (active) | > 30 µM (inactive) | > 30 µM (inactive) | > 30 µM (inactive) | COc1cc(CCc2cc(NC(=O)c3ccc(N4C[C@@H](C)N[C@@H](C)C4)cc3)n[nH]2)cc(OC)c1 [AZD-4547]
> 30 µM (inactive) | > 30 µM (inactive) | > 30 µM (inactive) | > 30 µM (inactive) | > 30 µM (inactive) | > 30 µM (inactive) | > 30 µM (inactive) | > 30 µM (inactive) | > 30 µM (inactive) | > 30 µM (inactive) | > 30 µM (inactive) | COc1cc(OC)c(/C=C/S(=O)(=O)Cc2ccc(OC)c(NCC(=O)O)c2)c(OC)c1 [RIGOSERTIB]
> 30 µM (inactive) | > 30 µM (inactive) | > 30 µM (inactive) | > 30 µM (inactive) | > 30 µM (inactive) | > 30 µM (inactive) | > 30 µM (inactive) | 1.61 µM (active) | > 30 µM (inactive) | > 30 µM (inactive) | > 30 µM (inactive) | CN1CCC(CNc2ccc3ncc(-c4cccc(OC(F)(F)F)c4)n3n2)CC1 [SGI-1776]
> 30 µM (inactive) | > 30 µM (inactive) | > 30 µM (inactive) | > 30 µM (inactive) | > 30 µM (inactive) | > 30 µM (inactive) | > 30 µM (inactive) | > 30 µM (inactive) | > 30 µM (inactive) | > 30 µM (inactive) | > 30 µM (inactive) | Cc1c(F)cc(C(=O)NC2CC2)cc1-c1ccc(C(=O)NCC(C)(C)C)cn1 [LOSMAPIMOD]
> 30 µM (inactive) | > 30 µM (inactive) | > 30 µM (inactive) | > 30 µM (inactive) | > 30 µM (inactive) | > 30 µM (inactive) | > 30 µM (inactive) | > 30 µM (inactive) | > 30 µM (inactive) | > 30 µM (inactive) | > 30 µM (inactive) | C[C@@H](c1ccc2nccn2c1)n1nnc2ncc(-c3cnn(C)c3)nc21 [SAVOLITINIB]
> 30 µM (inactive) | > 30 µM (inactive) | > 30 µM (inactive) | > 30 µM (inactive) | > 30 µM (inactive) | > 30 µM (inactive) | > 30 µM (inactive) | > 30 µM (inactive) | > 30 µM (inactive) | > 30 µM (inactive) | > 30 µM (inactive) | Cc1cc([C@@H](C)Nc2ccccc2C(=O)O)c2nc(N3CCOCC3)cc(=O)n2c1 [AZD-6482]
> 30 µM (inactive) | 2.32 µM (active) | > 30 µM (inactive) | > 30 µM (inactive) | > 30 µM (inactive) | > 30 µM (inactive) | > 30 µM (inactive) | 2.78 µM (active) | > 30 µM (inactive) | > 30 µM (inactive) | > 30 µM (inactive) | COCCNCc1ccc(-c2cc3nccc(Oc4ccc(NC(=S)NC(=O)Cc5ccc(F)cc5)cc4F)c3s2)nc1 [GLESATINIB]
> 30 µM (inactive) | > 30 µM (inactive) | > 30 µM (inactive) | > 30 µM (inactive) | > 30 µM (inactive) | > 30 µM (inactive) | > 30 µM (inactive) | > 30 µM (inactive) | > 30 µM (inactive) | > 30 µM (inactive) | > 30 µM (inactive) | CCn1c(=O)c(-c2cc[nH]n2)cc2c(C)nc(N)nc21 [VOXTALISIB]
> 30 µM (inactive) | > 30 µM (inactive) | > 30 µM (inactive) | > 30 µM (inactive) | > 30 µM (inactive) | > 30 µM (inactive) | > 30 µM (inactive) | > 30 µM (inactive) | > 30 µM (inactive) | > 30 µM (inactive) | > 30 µM (inactive) | COc1ccc(-c2ccc3c(N4CCOC[C@@H]4C)nc(N4CCOC[C@@H]4C)nc3n2)cc1CO [AZD-8055]
> 30 µM (inactive) | > 30 µM (inactive) | > 30 µM (inactive) | > 30 µM (inactive) | > 30 µM (inactive) | > 30 µM (inactive) | > 30 µM (inactive) | > 30 µM (inactive) | > 30 µM (inactive) | > 30 µM (inactive) | > 30 µM (inactive) | CN(C)C(=O)c1cc2cnc(Nc3ccc(N4CCNCC4)cn3)nc2n1C1CCCC1 [RIBOCICLIB]
> 30 µM (inactive) | > 30 µM (inactive) | > 30 µM (inactive) | > 30 µM (inactive) | > 30 µM (inactive) | > 30 µM (inactive) | > 30 µM (inactive) | 1.89 µM (active) | > 30 µM (inactive) | > 30 µM (inactive) | > 30 µM (inactive) | Cc1cc2c(F)c(Oc3ncnn4cc(OC[C@@H](C)OC(=O)[C@H](C)N)c(C)c34)ccc2[nH]1 [BRIVANIB ALANINATE]

Compound | Kd [1] | Kd [2] | Kd [3] | Kd [4] | Kd [5] | Kd [6] | Kd [7] | Kd [8] | Kd [9] | Kd [10] | Kd [11]
COC(=O)[C@@]1(O)C[C@H]2O[C@]1(C)n1c3ccccc3c3c4c(c5c6ccccc6n2c5c31)C(=O)NC4 [K-252A] | > 30 µM (inactive) | > 30 µM (inactive) | > 30 µM (inactive) | 0.043 µM (active) | 2.18 µM (active) | > 30 µM (inactive) | > 30 µM (inactive) | 1.01 µM (active) | 3.84 µM (active) | > 30 µM (inactive) | > 30 µM (inactive)
